From PubChem BioAssay (NCI)
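Five concentrations, 48 hours, 96-well plates. GI50 marks 50% less growth. TGI: concentration producing complete growth inhibition.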

What was measured:
Assay in all cases: inhibition of tumour cell growth, NCI panel, 48 h
786-0 renal = test system: 786-0 renal
A498 renal = test system: A498 renal
A549 NSCLC = test system: A549 NSCLC
ACHN renal = test system: ACHN renal
BT-549 breast = test system: BT-549 breast
CAKI-1 renal = test system: CAKI-1 renal
CCRF-CEM leukemia = test system: CCRF-CEM leukemia
COLO 205 colon = test system: COLO 205 colon
DU-145 prostate = test system: DU-145 prostate
EKVX NSCLC = test system: EKVX NSCLC
HCC-2998 colon = test system: HCC-2998 colon
HCT-116 colon = test system: HCT-116 colon
HCT-15 colon = test system: HCT-15 colon
HL-60(TB) leukemia = test system: HL-60(TB) leukemia
HOP-62 NSCLC = test system: HOP-62 NSCLC
HOP-92 NSCLC = test system: HOP-92 NSCLC
HS 578T breast = test system: HS 578T breast
HT29 colon = test system: HT29 colon
IGROV1 ovarian = test system: IGROV1 ovarian
K-562 leukemia = test system: K-562 leukemia
KM12 colon = test system: KM12 colon
LOX IMVI melanoma = test system: LOX IMVI melanoma
M14 melanoma = test system: M14 melanoma
MALME-3M melanoma = test system: MALME-3M melanoma
MCF7 breast = test system: MCF7 breast
MDA-MB-231 breast = test system: MDA-MB-231 breast
MDA-MB-435 = test system: MDA-MB-435
MOLT-4 leukemia = test system: MOLT-4 leukemia
NCI-H226 lung = test system: NCI-H226 lung
NCI-H23 lung = test system: NCI-H23 lung
NCI-H460 lung = test system: NCI-H460 lung
NCI-H522 lung = test system: NCI-H522 lung
NCI/ADR-RES ovarian = test system: NCI/ADR-RES ovarian
OVCAR-3 ovarian = test system: OVCAR-3 ovarian
OVCAR-4 ovarian = test system: OVCAR-4 ovarian
OVCAR-5 ovarian = test system: OVCAR-5 ovarian
OVCAR-8 ovarian = test system: OVCAR-8 ovarian
PC-3 prostate = test system: PC-3 prostate
RPMI-8226 leukemia = test system: RPMI-8226 leukemia
RXF 393 renal = test system: RXF 393 renal
SF-268 CNS = test system: SF-268 CNS
SF-295 CNS = test system: SF-295 CNS
SF-539 CNS = test system: SF-539 CNS
SK-MEL-2 melanoma = test system: SK-MEL-2 melanoma
SK-MEL-28 melanoma = test system: SK-MEL-28 melanoma
SK-MEL-5 melanoma = test system: SK-MEL-5 melanoma
SK-OV-3 ovarian = test system: SK-OV-3 ovarian
SN12C renal = test system: SN12C renal
SNB-19 CNS = test system: SNB-19 CNS
SNB-75 CNS = test system: SNB-75 CNS
SR leukemia = test system: SR leukemia
SW-620 colon = test system: SW-620 colon
T-47D breast = test system: T-47D breast
TK-10 renal = test system: TK-10 renal
U251 CNS = test system: U251 CNS
UACC-257 melanoma = test system: UACC-257 melanoma
UACC-62 melanoma = test system: UACC-62 melanoma
UO-31 renal = test system: UO-31 renal

COc1ccc(C(=O)COc2cccc(/C=C3\CSc4ccccc4C3=O)c2)cc1
GI50 (786-0 renal): 1.75 µM | TGI (786-0 renal): 3.69 µM | GI50 (A498 renal): 16.5 µM | TGI (A498 renal): 32 µM | GI50 (A549 NSCLC): 9.04 µM | TGI (A549 NSCLC): 39.5 µM | GI50 (ACHN renal): 1.93 µM | TGI (ACHN renal): 3.86 µM | GI50 (BT-549 breast): 1.8 µM | TGI (BT-549 breast): 3.67 µM | GI50 (CAKI-1 renal): 4.07 µM | TGI (CAKI-1 renal): 12.5 µM | GI50 (CCRF-CEM leukemia): 0.313 µM | TGI (CCRF-CEM leukemia): 1.09 µM | GI50 (COLO 205 colon): 2.93 µM | TGI (COLO 205 colon): 6.95 µM | GI50 (DU-145 prostate): 2.53 µM | TGI (DU-145 prostate): 5.4 µM | GI50 (EKVX NSCLC): 5.3 µM | TGI (EKVX NSCLC): 14.8 µM | GI50 (HCC-2998 colon): 1.82 µM | TGI (HCC-2998 colon): 3.39 µM | GI50 (HCT-116 colon): 1.35 µM | TGI (HCT-116 colon): 2.78 µM | GI50 (HCT-15 colon): 2.08 µM | TGI (HCT-15 colon): 6.07 µM | GI50 (HL-60(TB) leukemia): 2.25 µM | TGI (HL-60(TB) leukemia): > 23.2 µM | GI50 (HOP-62 NSCLC): 2.84 µM | TGI (HOP-62 NSCLC): 7.6 µM | GI50 (HOP-92 NSCLC): 2.4 µM | TGI (HOP-92 NSCLC): 9.08 µM | GI50 (HS 578T breast): 0.424 µM | TGI (HS 578T breast): 4.91 µM | GI50 (HT29 colon): 1.55 µM | TGI (HT29 colon): 3.18 µM | GI50 (IGROV1 ovarian): 1.49 µM | TGI (IGROV1 ovarian): 3.35 µM | GI50 (K-562 leukemia): 0.362 µM | GI50 (KM12 colon): 1.56 µM | TGI (KM12 colon): 3.05 µM | GI50 (LOX IMVI melanoma): 1.54 µM | TGI (LOX IMVI melanoma): 2.98 µM | GI50 (M14 melanoma): 2.01 µM | TGI (M14 melanoma): 4.01 µM | GI50 (MALME-3M melanoma): 2.2 µM | TGI (MALME-3M melanoma): 5.58 µM | GI50 (MCF7 breast): 0.537 µM | TGI (MCF7 breast): 2.22 µM | GI50 (MDA-MB-231 breast): 4.33 µM | TGI (MDA-MB-231 breast): 12.5 µM | GI50 (MDA-MB-435): 1.98 µM | TGI (MDA-MB-435): 4.62 µM | GI50 (MOLT-4 leukemia): 0.913 µM | TGI (MOLT-4 leukemia): 19.3 µM | GI50 (NCI-H226 lung): 4.63 µM | TGI (NCI-H226 lung): 14.9 µM | GI50 (NCI-H23 lung): 2.14 µM | TGI (NCI-H23 lung): 4.78 µM | GI50 (NCI-H460 lung): 3.56 µM | TGI (NCI-H460 lung): 12 µM | GI50 (NCI-H522 lung): 1.73 µM | TGI (NCI-H522 lung): 3.86 µM | GI50 (NCI/ADR-RES ovarian): 3.08 µM | TGI (NCI/ADR-RES ovarian): 9.64 µM | GI50 (OVCAR-3 ovarian): 1.88 µM | TGI (OVCAR-3 ovarian): 3.65 µM | GI50 (OVCAR-4 ovarian): 2.79 µM | TGI (OVCAR-4 ovarian): 9.87 µM | GI50 (OVCAR-5 ovarian): 2.18 µM | TGI (OVCAR-5 ovarian): 4.77 µM | GI50 (OVCAR-8 ovarian): 2.65 µM | TGI (OVCAR-8 ovarian): 6.71 µM | GI50 (PC-3 prostate): 2.03 µM | TGI (PC-3 prostate): 5.03 µM | GI50 (RPMI-8226 leukemia): 0.342 µM | TGI (RPMI-8226 leukemia): 3.69 µM | GI50 (RXF 393 renal): 2.42 µM | TGI (RXF 393 renal): 5.39 µM | GI50 (SF-268 CNS): 2.47 µM | TGI (SF-268 CNS): 5.77 µM | GI50 (SF-295 CNS): 1.87 µM | TGI (SF-295 CNS): 3.77 µM | GI50 (SF-539 CNS): 2.95 µM | TGI (SF-539 CNS): 8.51 µM | GI50 (SK-MEL-2 melanoma): 1.86 µM | TGI (SK-MEL-2 melanoma): 3.49 µM | GI50 (SK-MEL-28 melanoma): 2.04 µM | TGI (SK-MEL-28 melanoma): 3.71 µM | GI50 (SK-MEL-5 melanoma): 1.78 µM | TGI (SK-MEL-5 melanoma): 3.27 µM | GI50 (SK-OV-3 ovarian): 10.8 µM | TGI (SK-OV-3 ovarian): 45.7 µM | GI50 (SN12C renal): 2.63 µM | TGI (SN12C renal): 8.31 µM | GI50 (SNB-19 CNS): 2.77 µM | TGI (SNB-19 CNS): 8.73 µM | GI50 (SNB-75 CNS): 4.85 µM | TGI (SNB-75 CNS): 18.4 µM | GI50 (SR leukemia): 0.395 µM | GI50 (SW-620 colon): 0.262 µM | TGI (SW-620 colon): 0.707 µM | GI50 (T-47D breast): 2.33 µM | TGI (T-47D breast): 5.79 µM | GI50 (TK-10 renal): 2.73 µM | TGI (TK-10 renal): 9.79 µM | GI50 (U251 CNS): 1.57 µM | TGI (U251 CNS): 2.99 µM | GI50 (UACC-257 melanoma): 2.49 µM | TGI (UACC-257 melanoma): 6.12 µM | GI50 (UACC-62 melanoma): 1.72 µM | TGI (UACC-62 melanoma): 3.3 µM | GI50 (UO-31 renal): 1.69 µM | TGI (UO-31 renal): 3.46 µM
